Experimental data taken from patent publication US12441768B2, “Compositions and methods for treating endometriosis” (EndoMet Biosciences, Inc., priority 2018, dated 2025).
Where a SMILES comes first, the peptide text is derived from it. The star is where a group is joined. Bn = c1ccc(C*)cc1

Assays:
[1] = % Viability non-Wnt responsive cells
[2] = molecular target: Wnt-responsive promoter (TCF/LEF); assay: Wnt-dependent luciferase reporter assay; type: cell-based, murine
Outline: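 Murine 3T3 fibroblasts carrying a TCF/LEF-driven luciferase reporter, stimulated with Wnt3a in the presence of increasing peptide concentrations or vehicle. Luminescence inhibition gave EC50 values in uM.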

β-catenin = molecular target: T1, β-catenin (Homo sapiens, UniProt P35222); assay: KD50 measurement using competitive fluorescence polarization (FP) with labelled TCF4; type: binding; conditions: fluorescence polarization, β-catenin; for Kd: read-out: β-Cat FP KD
T1 sequence (P35222 1-781): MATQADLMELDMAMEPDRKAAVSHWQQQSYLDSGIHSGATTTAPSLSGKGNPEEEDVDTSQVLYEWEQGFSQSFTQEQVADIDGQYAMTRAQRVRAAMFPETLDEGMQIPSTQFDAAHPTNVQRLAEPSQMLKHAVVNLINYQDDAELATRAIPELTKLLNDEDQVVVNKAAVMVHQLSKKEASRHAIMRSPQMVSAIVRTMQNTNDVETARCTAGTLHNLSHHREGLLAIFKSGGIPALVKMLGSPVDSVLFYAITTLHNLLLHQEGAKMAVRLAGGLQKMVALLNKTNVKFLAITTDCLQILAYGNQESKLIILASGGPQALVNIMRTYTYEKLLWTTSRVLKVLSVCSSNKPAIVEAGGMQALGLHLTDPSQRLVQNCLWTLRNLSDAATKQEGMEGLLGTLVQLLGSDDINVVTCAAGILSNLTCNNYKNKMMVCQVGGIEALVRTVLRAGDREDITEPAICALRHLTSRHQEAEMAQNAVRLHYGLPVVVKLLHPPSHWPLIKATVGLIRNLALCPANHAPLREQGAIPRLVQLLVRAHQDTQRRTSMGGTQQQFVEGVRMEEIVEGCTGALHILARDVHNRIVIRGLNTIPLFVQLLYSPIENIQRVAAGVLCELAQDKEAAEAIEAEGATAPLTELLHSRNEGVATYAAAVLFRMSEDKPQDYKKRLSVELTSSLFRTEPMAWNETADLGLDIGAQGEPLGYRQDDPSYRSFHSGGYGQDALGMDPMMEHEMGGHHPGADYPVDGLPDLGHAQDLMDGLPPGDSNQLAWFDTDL
Outline: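 Each compound competes against labelled TCF4 (5 nM) for 100 nM β-catenin at room temperature, tested over 10 nM to 30 uM. Signal: polarization at 470/520 nm excitation/emission. Three repeat experiments were performed.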

Structure (SMILES) | viability [1] [%] | EC50 [2] [µM] | Kd (β-catenin) [µM] | β-Cat FP Hill slope (β-catenin)
CC[C@H](C)[C@H](NC(=O)[C@H](CC(C)C)NC(=O)[C@@H](NC(=O)[C@H](Cc1c[nH]c2ccccc12)NC(=O)[C@@H](N)CCSC)[C@@H](C)CC)C(=O)N[C@@H](CCO)C(=O)N[C@@H](Cc1ccccc1)C(=O)N[C@@H](Cc1c[nH]c2ccccc12)C(=O)NCC(=O)O [compound 144] (HELM PEPTIDE1{M.W.I.L.I.[O=C([C@H](CCO)N[*:1])[*:2]].F.W.G}$$$$V2.0) | 106 | < 7.5 | > 30 | 
CC[C@H](C)[C@H](NC(=O)[C@H](CC(C)C)NC(=O)[C@H](Cc1ccccc1)NC(=O)[C@H](Cc1c[nH]c2ccccc12)NC(=O)[C@H](CCSC)NC(=O)[C@H](CCCNC(=N)N)NC(=O)[C@@H](NC(=O)[C@@H](N)CCSC)[C@@H](C)CC)C(=O)N[C@@H](CS)C(=O)N[C@@H](C)C(=O)N[C@@H](Cc1c[nH]c2ccccc12)C(=O)NCC(=O)O [compound 166] (H-MIRMWFLICAWG-OH) | 100 | > 30 | > 30 | 
CC[C@H](C)[C@H](NC(=O)[C@H](CC(C)C)NC(=O)[C@@H](NC(=O)[C@H](Cc1c[nH]c2ccccc12)NC(=O)[C@H](CCSC)NC(C)=O)[C@@H](C)CC)C(=O)N[C@@H](CO)C(=O)N[C@@H](Cc1ccccc1)C(=O)N[C@@H](Cc1c[nH]c2ccccc12)C(=O)NCC(=O)O [compound 165] (Ac-MWILISFWG-OH) | 102 | < 7.5 | < 0.4 | 2.99
CC[C@H](C)[C@H](NC(=O)[C@H](CC(C)C)NC(=O)[C@H](Cc1ccccc1)NC(=O)[C@H](Cc1c[nH]c2ccccc12)NC(=O)[C@@H](N)CCSC)C(=O)N[C@@H](CO)C(=O)N[C@@H](Cc1ccccc1)C(=O)N[C@@H](Cc1c[nH]c2ccccc12)C(=O)N[C@@H](CCCNC(=N)N)C(=O)NCC(=O)O [compound 49] (H-MWFLISFWRG-OH) | 103 | < 7.5 | > 30 | 
CC[C@H](C)[C@H](NC(=O)[C@H](CC(C)C)NC(=O)[C@H](Cc1ccccc1)NC(=O)[C@H](Cc1c[nH]c2ccccc12)NC(=O)[C@@H](NC(=O)[C@H](CCCNC(=N)N)NC(=O)[C@H](CO)NC(=O)[C@@H](N)CCSC)[C@@H](C)O)C(=O)N[C@@H](CO)C(=O)N[C@@H](Cc1ccccc1)C(=O)N[C@@H](Cc1c[nH]c2ccccc12)C(=O)NCC(=O)O [compound 48] (H-MSRTWFLISFWG-OH) | 101 | 7.5 to 15 | > 30 | 
CC[C@H](C)[C@@H]1NC(=O)[C@H](CC(C)C)NC(=O)[C@H](C(C)(C)C)NC(=O)[C@H](Cc2c[nH]c3ccccc23)NC(=O)[C@@H](N)CCCCNC(=O)C[C@@H](C(=O)O)NC(=O)[C@H](Cc2c[nH]c3ccccc23)NC(=O)[C@H](C)NC(=O)[C@H](CO)NC1=O [compound 205] (HELM PEPTIDE1{K.W.[CC(C)(C)[C@H](N[*:1])C(=O)[*:2]].L.I.S.A.W.D}$PEPTIDE1,PEPTIDE1,1:R3-9:R3$$$V2.0) | 114 | > 30 | > 30 | 
CC[C@H](C)[C@@H]1NC(=O)[C@H](CC(C)C)NC(=O)[C@H]([C@@H](C)CC)NC(=O)[C@H](Cc2c[nH]c3ccccc23)NC(=O)[C@@H](N)CCCCNC(=O)CC[C@@H](C(=O)O)NC(=O)[C@H](Cc2c[nH]c3ccccc23)NC(=O)[C@H](C)NC(=O)[C@H](CO)NC1=O [compound 184] (HELM PEPTIDE1{K.W.I.L.I.S.A.W.E}$PEPTIDE1,PEPTIDE1,1:R3-9:R3$$$V2.0) | 95.2 | < 7.5 | 10 to 30 | 0.7
CC[C@H](C)[C@H](NC(=O)[C@H](CC(C)C)NC(=O)[C@H](Cc1ccccc1)NC(=O)[C@H](Cc1c[nH]c2ccccc12)NC(=O)[C@H](CCSC)NC(=O)[C@H](CCCNC(=N)N)NC(=O)[C@H](CO)NC(=O)[C@@H](N)CCSC)C(=O)N[C@@H](CO)C(=O)N[C@@H](CO)C(=O)N[C@@H](Cc1c[nH]c2ccccc12)C(=O)O [compound 99] (H-MSRMWFLISSW-OH) | 97.3 | 22.5 to 30 | 1 to 10 | 0.7
CC[C@H](C)[C@@H]1NC(=O)[C@H](CC(C)C)NC(=O)[C@H](Cc2ccccc2)NC(=O)[C@H](Cc2c[nH]c3ccccc23)NC(=O)[C@H](CCSC)NC(=O)CCCNC(=O)C[C@@H](C(=O)O)NC(=O)[C@H](Cc2c[nH]c3ccccc23)NC(=O)[C@H](Cc2ccccc2)NC(=O)[C@H](CS)NC1=O [compound 147] (HELM PEPTIDE1{[O=C(CCCN[*:1])[*:2]].M.W.F.L.I.C.F.W.D}$PEPTIDE1,PEPTIDE1,1:R1-10:R3$$$V2.0) | 105 | > 30 | > 30 | 
CC[C@H](C)[C@H](NC(=O)[C@H](CC(C)C)NC(=O)[C@@H](NC(=O)[C@H](Cc1c[nH]c2ccccc12)NC(=O)[C@@H](N)CCSC)[C@@H](C)CC)C(=O)N[C@@H](CO)C(=O)N[C@@H](Cc1ccc(O)cc1)C(=O)N[C@@H](Cc1c[nH]c2ccccc12)C(=O)NCC(=O)O [compound 152] (H-MWILISYWG-OH) | 114 | < 7.5 | > 30 | 
CC[C@H](C)[C@H](NC(=O)[C@H](CC(C)C)NC(=O)[C@H](Cc1ccccc1)NC(=O)[C@H](Cc1c[nH]c2ccccc12)NC(=O)[C@H](CCCCN)NC(=O)[C@H](CCCNC(=N)N)NC(=O)[C@H](CO)NC(=O)[C@@H](N)CCCCN)C(=O)N[C@@H](CO)C(=O)N[C@@H](Cc1ccccc1)C(=O)N[C@@H](Cc1c[nH]c2ccccc12)C(N)=O [compound 93] (H-KSRKWFLISFW-NH2) | 94 | > 30 | > 30 | 
CC[C@H](C)[C@H](NC(=O)[C@H](CC(C)C)NC(=O)[C@H](Cc1ccccc1)NC(=O)[C@H](Cc1c[nH]c2ccccc12)NC(=O)[C@@H](N)CCSC)C(=O)N[C@@H](C)C(=O)N[C@@H](Cc1ccccc1)C(=O)N[C@@H](Cc1c[nH]c2ccccc12)C(=O)NCC(=O)O [compound 159] (H-MWFLIAFWG-OH) | 107 | < 7.5 | > 30 | 
CSCC[C@H](NC(=O)[C@H](CCCNC(=N)N)NC(=O)[C@H](CO)NC(=O)[C@@H](N)CCSC)C(=O)N[C@@H](Cc1c[nH]c2ccccc12)C(=O)N[C@@H](Cc1ccccc1)C(=O)N[C@@H](CC(C)C)C(=O)N[C@@H](CC(N)=O)C(=O)N[C@@H](CO)C(=O)N[C@@H](Cc1ccccc1)C(=O)N[C@@H](Cc1c[nH]c2ccccc12)C(=O)NCC(=O)O [compound 70] (H-MSRMWFLNSFWG-OH) | 98.5 | > 30 | > 30 | 
CC[C@H](C)[C@H](NC(=O)[C@H](CC(C)C)NC(=O)[C@H](Cc1ccccc1)NC(=O)[C@H](Cc1c[nH]c2ccccc12)NC(=O)[C@@H](N)CCSC)C(=O)N[C@@H](CO)C(=O)N[C@@H](C)C(=O)N[C@@H](Cc1c[nH]c2ccccc12)C(=O)NCC(=O)O [compound 160] (H-MWFLISAWG-OH) | 102 | < 7.5 | > 30 | 
CC[C@H](C)[C@H](NC(=O)[C@H](CC(C)C)NC(=O)[C@H](Cc1ccccc1)NC(=O)[C@H](Cc1c[nH]c2ccccc12)NC(=O)[C@H](CCSC)NC(=O)[C@H](CCCNC(=N)N)NC(=O)[C@H](CO)NC(=O)[C@@H](N)CCSC)C(=O)N[C@@H](CO)C(=O)N[C@@H](COCc1ccccc1)C(=O)N[C@@H](Cc1c[nH]c2ccccc12)C(=O)O [compound 106] (H-MSRMWFLISS(Bn)W-OH) | 105 | 15 to 22.5 | 1 to 10 | 0.7
CC[C@H](C)[C@H](NC(=O)[C@H](CC(C)C)NC(=O)[C@H](Cc1ccccc1)NC(=O)[C@H](Cc1c[nH]c2ccccc12)NC(=O)[C@H](CCSC)NC(=O)[C@H](CCCNC(=N)N)NC(=O)[C@H](CO)NC(=O)[C@@H](N)CCSC)C(=O)N[C@@H](CO)C(=O)N[C@@H](Cc1ccccc1)C(=O)N[C@@H](Cc1c[nH]c2ccccc12)C(=O)N[C@@H](CCCNC(=N)N)C(=O)NCC(=O)O [compound 58] (H-MSRMWFLISFWRG-OH) | 106 | 22.5 to 30 | > 30 | 
CC[C@H](C)[C@@H]1NC(=O)[C@H](CC(C)C)NC(=O)[C@H](Cc2ccccc2)NC(=O)[C@H](Cc2c[nH]c3ccccc23)NC(=O)[C@H](CCSC)NC(=O)[C@@H](N)CCCCNC(=O)C[C@@H](C(=O)O)NC(=O)[C@H](Cc2c[nH]c3ccccc23)NC(=O)[C@H](Cc2ccccc2)NC(=O)[C@H](CO)NC1=O [compound 171] (HELM PEPTIDE1{K.M.W.F.L.I.S.F.W.D}$PEPTIDE1,PEPTIDE1,1:R3-10:R3$$$V2.0) | 79.6 | < 7.5 | 1 to 10 | 0.7
